In ChEMBL document CHEMBL5678818, “Discovery of potent SOS1 inhibitors that block RAS activation via disruption of the RAS-SOS1 interaction” (Proc Natl Acad Sci U S A, 2019):
Active and inactive are the calls of the source. The calls are words filed in the database; no cut-off is given here.

What was measured:
[1] = target: 1-phosphatidylinositol 3-phosphate 5-kinase (Homo sapiens) (UniProt Q9Y2I7); experiment: Inhibition of PIKFYVE (unknown origin) assessed as residual activity at 1000 nM by KINOMEscan analysis relative to control
[2] = target: Microtubule-associated serine/threonine-protein kinase 1 (Homo sapiens) (UniProt Q9Y2H9); experiment: Inhibition of MAST1 (unknown origin) assessed as residual activity at 100 nM by KINOMEscan analysis relative to control
Chain of Microtubule-associated serine/threonine-protein kinase 1 (Homo sapiens) (Q9Y2H9 whole entry, looked up): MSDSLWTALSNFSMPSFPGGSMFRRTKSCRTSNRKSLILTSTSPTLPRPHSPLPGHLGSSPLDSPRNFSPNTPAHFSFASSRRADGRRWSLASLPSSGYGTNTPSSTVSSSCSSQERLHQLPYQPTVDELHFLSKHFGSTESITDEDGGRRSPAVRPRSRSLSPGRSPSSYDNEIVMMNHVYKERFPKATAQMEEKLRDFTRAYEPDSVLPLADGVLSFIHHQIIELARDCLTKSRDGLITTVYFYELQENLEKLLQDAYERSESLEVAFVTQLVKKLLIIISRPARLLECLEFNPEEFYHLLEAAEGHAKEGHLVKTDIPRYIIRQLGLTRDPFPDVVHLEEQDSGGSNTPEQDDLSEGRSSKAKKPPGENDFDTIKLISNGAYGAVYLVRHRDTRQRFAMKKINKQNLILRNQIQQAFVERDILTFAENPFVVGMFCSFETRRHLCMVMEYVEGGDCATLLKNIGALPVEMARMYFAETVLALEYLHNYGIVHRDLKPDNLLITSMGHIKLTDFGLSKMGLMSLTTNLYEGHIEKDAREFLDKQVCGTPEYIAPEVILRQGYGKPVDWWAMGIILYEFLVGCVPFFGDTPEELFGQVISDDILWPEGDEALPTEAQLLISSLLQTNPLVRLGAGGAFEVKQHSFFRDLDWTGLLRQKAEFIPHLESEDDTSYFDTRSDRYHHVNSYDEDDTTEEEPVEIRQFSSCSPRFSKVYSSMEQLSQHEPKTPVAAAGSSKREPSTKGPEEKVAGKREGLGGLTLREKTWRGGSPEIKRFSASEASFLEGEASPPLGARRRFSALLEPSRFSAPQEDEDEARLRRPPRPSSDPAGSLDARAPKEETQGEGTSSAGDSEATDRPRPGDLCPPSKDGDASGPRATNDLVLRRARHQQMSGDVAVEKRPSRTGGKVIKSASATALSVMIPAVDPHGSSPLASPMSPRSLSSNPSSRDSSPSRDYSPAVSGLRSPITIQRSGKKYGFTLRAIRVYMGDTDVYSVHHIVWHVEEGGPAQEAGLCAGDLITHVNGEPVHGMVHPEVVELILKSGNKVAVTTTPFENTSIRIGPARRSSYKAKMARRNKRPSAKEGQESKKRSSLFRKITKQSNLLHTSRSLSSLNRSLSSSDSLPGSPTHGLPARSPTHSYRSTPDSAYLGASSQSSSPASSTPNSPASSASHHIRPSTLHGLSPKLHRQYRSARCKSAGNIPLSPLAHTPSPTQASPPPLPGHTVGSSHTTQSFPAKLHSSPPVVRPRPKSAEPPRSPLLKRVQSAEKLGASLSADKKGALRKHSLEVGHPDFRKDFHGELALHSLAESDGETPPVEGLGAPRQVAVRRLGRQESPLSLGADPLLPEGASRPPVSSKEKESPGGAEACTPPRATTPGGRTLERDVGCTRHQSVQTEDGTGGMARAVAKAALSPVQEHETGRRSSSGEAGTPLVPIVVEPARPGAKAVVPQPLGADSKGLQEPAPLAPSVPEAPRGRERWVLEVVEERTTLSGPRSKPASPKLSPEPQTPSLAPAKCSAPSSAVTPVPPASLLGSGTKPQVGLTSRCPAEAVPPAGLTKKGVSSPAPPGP

[3] = system: Tyrosine-protein kinase ABL1 (Homo sapiens), P00519 [F317L]; experiment: Inhibition of nonphosphorylated ABL1 F317L mutant (unknown origin) assessed as residual activity at 100 nM by KINOMEscan analysis relative to control
Chain of Tyrosine-protein kinase ABL1 (Homo sapiens), P00519 [F317L] (P00519 whole entry F317L): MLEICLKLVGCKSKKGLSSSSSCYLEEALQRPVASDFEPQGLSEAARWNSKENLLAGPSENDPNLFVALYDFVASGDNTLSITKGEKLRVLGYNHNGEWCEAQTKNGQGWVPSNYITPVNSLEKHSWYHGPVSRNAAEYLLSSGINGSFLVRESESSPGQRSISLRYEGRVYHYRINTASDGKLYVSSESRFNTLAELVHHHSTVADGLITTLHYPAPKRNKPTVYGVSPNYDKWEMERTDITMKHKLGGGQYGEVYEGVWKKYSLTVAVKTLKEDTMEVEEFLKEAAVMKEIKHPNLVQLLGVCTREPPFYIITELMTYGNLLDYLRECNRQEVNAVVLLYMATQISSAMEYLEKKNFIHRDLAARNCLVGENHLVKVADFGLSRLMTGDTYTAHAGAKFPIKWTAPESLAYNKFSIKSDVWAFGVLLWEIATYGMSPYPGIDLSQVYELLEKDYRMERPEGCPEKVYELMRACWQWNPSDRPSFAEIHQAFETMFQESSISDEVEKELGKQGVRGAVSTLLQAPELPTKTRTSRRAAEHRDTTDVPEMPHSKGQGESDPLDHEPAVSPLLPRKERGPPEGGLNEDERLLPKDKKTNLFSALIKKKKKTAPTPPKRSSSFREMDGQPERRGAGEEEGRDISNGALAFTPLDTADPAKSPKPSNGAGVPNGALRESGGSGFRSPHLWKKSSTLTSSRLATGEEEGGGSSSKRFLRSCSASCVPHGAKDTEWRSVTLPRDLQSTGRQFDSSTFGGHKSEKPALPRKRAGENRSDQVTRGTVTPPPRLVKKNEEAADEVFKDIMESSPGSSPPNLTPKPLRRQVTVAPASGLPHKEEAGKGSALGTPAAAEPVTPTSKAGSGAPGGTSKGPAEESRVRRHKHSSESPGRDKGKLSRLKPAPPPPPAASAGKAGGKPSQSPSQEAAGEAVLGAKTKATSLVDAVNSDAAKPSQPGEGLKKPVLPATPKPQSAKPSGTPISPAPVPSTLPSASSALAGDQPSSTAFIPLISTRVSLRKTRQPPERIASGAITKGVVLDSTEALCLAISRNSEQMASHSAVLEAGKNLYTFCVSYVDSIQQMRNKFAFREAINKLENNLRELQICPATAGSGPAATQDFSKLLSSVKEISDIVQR

[4] = target: Tyrosine-protein kinase ABL1 (Homo sapiens) (UniProt P00519); experiment: Inhibition of nonphosphorylated ABL1 (unknown origin) assessed as residual activity at 100 nM by KINOMEscan analysis relative to control
Chain of Tyrosine-protein kinase ABL1 (Homo sapiens) (P00519 whole entry, canonical isoform): as the sequence (P00519 whole entry F317L) above, with L317F counted along it

[5] = system: Phosphatidylinositol 4,5-bisphosphate 3-kinase catalytic subunit alpha isoform (Homo sapiens), P42336 [C420R]; experiment: Inhibition of PIK3CA C420R mutant (unknown origin) assessed as residual activity at 100 nM by KINOMEscan analysis relative to control
Chain of Phosphatidylinositol 4,5-bisphosphate 3-kinase catalytic subunit alpha isoform (Homo sapiens), P42336 [C420R] (P42336 whole entry C420R, canonical isoform): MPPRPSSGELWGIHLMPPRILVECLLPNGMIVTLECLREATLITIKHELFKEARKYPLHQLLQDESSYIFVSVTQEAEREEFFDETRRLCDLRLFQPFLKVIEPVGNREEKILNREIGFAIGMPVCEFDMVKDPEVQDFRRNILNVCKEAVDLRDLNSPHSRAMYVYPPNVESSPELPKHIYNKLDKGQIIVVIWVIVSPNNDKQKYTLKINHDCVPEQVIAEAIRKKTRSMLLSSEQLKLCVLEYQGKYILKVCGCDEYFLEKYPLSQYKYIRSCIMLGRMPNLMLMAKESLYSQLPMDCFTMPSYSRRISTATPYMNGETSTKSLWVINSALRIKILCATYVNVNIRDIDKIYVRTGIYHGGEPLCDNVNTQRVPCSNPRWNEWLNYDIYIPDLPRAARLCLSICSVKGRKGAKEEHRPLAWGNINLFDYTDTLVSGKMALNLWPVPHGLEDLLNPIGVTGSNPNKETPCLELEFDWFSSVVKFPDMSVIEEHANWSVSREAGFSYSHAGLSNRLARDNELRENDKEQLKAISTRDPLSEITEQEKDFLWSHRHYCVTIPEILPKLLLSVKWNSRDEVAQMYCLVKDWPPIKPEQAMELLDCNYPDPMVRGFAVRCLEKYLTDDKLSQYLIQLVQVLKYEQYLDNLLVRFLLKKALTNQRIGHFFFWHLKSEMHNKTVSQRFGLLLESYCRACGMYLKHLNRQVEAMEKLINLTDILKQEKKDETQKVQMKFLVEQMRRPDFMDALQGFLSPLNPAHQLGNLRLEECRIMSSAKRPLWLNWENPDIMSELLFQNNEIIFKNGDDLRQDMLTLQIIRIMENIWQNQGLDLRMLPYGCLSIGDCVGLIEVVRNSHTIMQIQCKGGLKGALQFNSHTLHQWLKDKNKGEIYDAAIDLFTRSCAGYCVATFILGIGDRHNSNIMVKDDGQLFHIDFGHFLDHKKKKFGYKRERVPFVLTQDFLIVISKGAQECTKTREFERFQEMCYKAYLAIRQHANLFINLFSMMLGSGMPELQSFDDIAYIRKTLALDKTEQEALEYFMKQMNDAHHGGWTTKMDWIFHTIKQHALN

[6] = target: T1, Testis-specific serine/threonine-protein kinase 1 (Homo sapiens) (UniProt Q9BXA7); experiment: Inhibition of TSSK1B (unknown origin) assessed as residual activity at 100 nM by KINOMEscan analysis relative to control
T1 sequence (whole entry): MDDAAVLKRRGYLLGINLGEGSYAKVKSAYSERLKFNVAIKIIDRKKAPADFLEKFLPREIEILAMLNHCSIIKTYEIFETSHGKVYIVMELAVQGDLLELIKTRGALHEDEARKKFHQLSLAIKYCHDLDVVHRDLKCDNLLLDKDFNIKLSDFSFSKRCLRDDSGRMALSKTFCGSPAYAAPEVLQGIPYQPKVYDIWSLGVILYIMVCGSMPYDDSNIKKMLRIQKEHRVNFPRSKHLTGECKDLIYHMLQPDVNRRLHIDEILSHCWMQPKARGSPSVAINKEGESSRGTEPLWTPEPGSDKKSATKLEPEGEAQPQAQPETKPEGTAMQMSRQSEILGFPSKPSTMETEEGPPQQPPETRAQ

[7] = target: Vascular endothelial growth factor receptor 1 (Homo sapiens) (UniProt P17948); experiment: Inhibition of FLT1 (unknown origin) assessed as residual activity at 100 nM by KINOMEscan analysis relative to control
Chain of Vascular endothelial growth factor receptor 1 (Homo sapiens) (P17948 whole entry): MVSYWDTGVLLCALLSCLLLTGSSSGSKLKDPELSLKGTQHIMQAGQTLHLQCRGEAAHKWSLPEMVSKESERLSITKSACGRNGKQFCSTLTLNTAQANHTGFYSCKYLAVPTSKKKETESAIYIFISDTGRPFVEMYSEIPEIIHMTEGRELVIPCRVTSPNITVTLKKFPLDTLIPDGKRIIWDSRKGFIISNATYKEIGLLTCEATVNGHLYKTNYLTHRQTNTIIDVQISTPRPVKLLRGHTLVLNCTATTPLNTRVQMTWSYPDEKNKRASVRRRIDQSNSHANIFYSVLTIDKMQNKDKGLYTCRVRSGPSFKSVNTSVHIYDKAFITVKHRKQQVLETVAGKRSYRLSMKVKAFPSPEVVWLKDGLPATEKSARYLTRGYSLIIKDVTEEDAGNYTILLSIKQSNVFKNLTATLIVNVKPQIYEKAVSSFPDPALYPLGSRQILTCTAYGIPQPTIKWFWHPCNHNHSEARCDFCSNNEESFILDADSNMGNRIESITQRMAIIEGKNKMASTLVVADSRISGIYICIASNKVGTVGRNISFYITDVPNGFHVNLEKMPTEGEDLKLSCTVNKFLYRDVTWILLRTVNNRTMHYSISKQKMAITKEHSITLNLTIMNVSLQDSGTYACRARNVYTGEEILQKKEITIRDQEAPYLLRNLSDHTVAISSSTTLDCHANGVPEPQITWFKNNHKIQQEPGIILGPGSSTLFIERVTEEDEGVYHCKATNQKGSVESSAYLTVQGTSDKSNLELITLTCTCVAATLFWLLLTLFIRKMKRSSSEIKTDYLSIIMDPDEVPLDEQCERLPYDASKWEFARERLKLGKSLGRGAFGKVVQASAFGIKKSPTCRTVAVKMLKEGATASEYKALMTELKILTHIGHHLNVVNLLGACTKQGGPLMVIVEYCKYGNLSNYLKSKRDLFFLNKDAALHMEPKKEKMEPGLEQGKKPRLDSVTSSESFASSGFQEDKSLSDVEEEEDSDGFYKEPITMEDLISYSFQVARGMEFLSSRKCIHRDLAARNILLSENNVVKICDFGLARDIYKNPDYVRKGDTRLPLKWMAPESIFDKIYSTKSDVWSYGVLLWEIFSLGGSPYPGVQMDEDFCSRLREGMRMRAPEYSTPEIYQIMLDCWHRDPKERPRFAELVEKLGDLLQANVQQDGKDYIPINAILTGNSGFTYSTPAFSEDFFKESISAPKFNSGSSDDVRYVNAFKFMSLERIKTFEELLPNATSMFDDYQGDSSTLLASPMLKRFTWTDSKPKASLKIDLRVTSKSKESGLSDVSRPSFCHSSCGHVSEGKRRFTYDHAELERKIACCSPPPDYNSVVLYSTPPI

[8] = target: T2, Serine/threonine-protein kinase Sgk3 (Homo sapiens) (UniProt Q96BR1); experiment: Inhibition of SGK3 (unknown origin) assessed as residual activity at 100 nM by KINOMEscan analysis relative to control
T2 sequence (whole entry): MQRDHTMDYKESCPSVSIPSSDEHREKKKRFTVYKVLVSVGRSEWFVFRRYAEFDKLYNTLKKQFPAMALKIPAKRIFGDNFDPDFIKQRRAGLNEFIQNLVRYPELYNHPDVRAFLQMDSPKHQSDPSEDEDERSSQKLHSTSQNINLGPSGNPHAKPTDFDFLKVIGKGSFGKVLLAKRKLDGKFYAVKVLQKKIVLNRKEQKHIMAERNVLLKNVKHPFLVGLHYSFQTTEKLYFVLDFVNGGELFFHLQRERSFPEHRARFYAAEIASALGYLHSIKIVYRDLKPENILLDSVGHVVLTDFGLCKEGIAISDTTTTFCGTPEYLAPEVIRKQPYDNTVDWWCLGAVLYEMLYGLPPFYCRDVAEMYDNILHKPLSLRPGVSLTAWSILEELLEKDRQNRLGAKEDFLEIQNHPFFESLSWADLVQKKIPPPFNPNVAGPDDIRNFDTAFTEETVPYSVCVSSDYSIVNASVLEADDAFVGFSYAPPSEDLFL

Homo sapiens [9] = species: Homo sapiens; experiment: Inhibition of N-terminal GST-tagged recombinant human SOS1 S876K mutant (564 to 1049 residues) expressed in Escherichia coli assessed as reduction in KRAS G12C mutant activation at 10 uM by HTRF analysis relative to control
Homo sapiens [10] = species: Homo sapiens; experiment: Inhibition of N-terminal His10-tagged recombinant human KRAS G12C/C118S mutant (1 to 169 residues) expressed in Escherichia coli/Series S C1 sensor chip-immobilized biotinylated N-terminal His10-tagged wild-type recombinant human SOS1 catalytic domain (564 to 1049 residues) expressed in Escherichia coli protein-protein interaction at 10 uM measured for 360 secs by SPR analysis; settings: time 360.0 sec
[11] = system: ALK tyrosine kinase receptor (Homo sapiens), Q9UM73 [L1196M]; experiment: Inhibition of ALK L1196M mutant (unknown origin) assessed as residual activity at 100 nM by KINOMEscan analysis relative to control
[12] = target: T3, Tyrosine-protein kinase Mer (Homo sapiens) (UniProt Q12866); experiment: Inhibition of MERTK (unknown origin) assessed as residual activity at 100 nM by KINOMEscan analysis relative to control
T3 sequence (whole entry): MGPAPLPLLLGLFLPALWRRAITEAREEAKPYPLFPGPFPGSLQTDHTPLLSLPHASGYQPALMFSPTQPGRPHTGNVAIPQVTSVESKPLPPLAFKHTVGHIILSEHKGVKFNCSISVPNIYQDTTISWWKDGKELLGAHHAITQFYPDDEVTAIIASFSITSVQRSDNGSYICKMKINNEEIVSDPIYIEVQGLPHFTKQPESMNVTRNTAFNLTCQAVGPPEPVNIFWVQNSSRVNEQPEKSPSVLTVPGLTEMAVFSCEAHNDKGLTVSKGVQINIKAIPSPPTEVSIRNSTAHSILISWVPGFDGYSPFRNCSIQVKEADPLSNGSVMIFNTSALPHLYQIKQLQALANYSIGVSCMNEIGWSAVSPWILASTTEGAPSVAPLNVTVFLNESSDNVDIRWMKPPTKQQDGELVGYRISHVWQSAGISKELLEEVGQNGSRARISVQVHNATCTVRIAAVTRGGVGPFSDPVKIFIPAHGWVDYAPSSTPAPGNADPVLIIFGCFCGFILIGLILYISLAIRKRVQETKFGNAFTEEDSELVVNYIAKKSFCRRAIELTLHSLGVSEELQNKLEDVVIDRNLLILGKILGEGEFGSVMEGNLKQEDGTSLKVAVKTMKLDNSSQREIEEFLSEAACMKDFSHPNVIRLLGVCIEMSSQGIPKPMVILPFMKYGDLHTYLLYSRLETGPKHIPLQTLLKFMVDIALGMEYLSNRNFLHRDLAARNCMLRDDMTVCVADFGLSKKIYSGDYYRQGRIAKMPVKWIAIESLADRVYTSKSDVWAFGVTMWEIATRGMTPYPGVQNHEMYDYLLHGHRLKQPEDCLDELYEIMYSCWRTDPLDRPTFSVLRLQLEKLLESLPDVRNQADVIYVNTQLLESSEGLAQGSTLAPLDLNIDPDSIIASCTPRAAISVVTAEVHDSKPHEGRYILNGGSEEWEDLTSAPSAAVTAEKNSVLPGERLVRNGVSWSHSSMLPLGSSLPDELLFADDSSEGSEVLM

SMILES	Activity [1] [%]	Activity [2] [%]	Activity [3] [%]	Activity [4] [%]	Activity [5] [%]	Activity [6] [%]	Activity [7] [%]	Activity [8] [%]	inhibition (Homo sapiens [9]) [%]	Activity (Homo sapiens [10])	Activity [11] [%]	Activity [12] [%]
COc1cc2nc(C)nc(N[C@H](C)c3cccc(-c4cn[nH]c4)c3)c2cc1OC	68											
COc1cc2ncnc(N[C@H](C)c3cccc4ccccc34)c2cc1OC		71	100	99	90	84	93	100	102	Active	66	97
